Data published in the NIST ThermoML archive (doi:10.1016/j.jct.2012.11.032).

Assay: xn = mol fraction of the nth substance listed
Settings: 101 kPa, Liquid; for speed of sound: Sing-around technique in a fixed-path interferometer; for mass density: Vibrating tube method

CCCCCCCC[n+]1ccn(C)c1.[Cl-] [1-methyl-3-octylimidazolium chloride] + O
Settings | mass density, 283 K [kg/m3] | mass density, 288 K [kg/m3] | mass density, 293 K [kg/m3] | speed of sound, 283 K [m/s] | speed of sound, 288 K [m/s] | speed of sound, 293 K [m/s] | speed of sound, 298 K [m/s]
x1 = 0.000276 | 999.831 | 999.227 | 998.326 | 1451.5 | 1469.6 | 1485.5 | 1499.5
x1 = 0.000495 | 999.918 | 999.302 | 998.392 | 1454.3 | 1471.9 | 1487.7 | 1501.5
x1 = 0.000781 | 1000.05 | 999.421 | 998.497 | 1457 | 1474.6 | 1490.3 | 1503.9
x1 = 0.00102 | 1000.16 | 999.519 | 998.584 | 1460.1 | 1477.3 | 1492.6 | 1506.1
x1 = 0.0013 | 1000.3 | 999.641 | 998.69 | 1463.2 | 1480.2 | 1495.3 | 1508.5
x1 = 0.001503 | 1000.38 | 999.712 | 998.751 | 1465.5 | 1482.2 | 1497.2 | 1510.3
x1 = 0.001892 | 1000.56 | 999.863 | 998.879 | 1469.7 | 1486.1 | 1500.8 | 1513.6
x1 = 0.002073 | 1000.64 | 999.938 | 998.946 | 1471.7 | 1488 | 1502.5 | 1515.2
x1 = 0.002376 | 1000.78 | 1000.06 | 999.051 | 1474.9 | 1490.9 | 1505.2 | 1517.6
x1 = 0.00261 | 1000.89 | 1000.15 | 999.124 | 1477.4 | 1493.3 | 1507.3 | 1519.6
x1 = 0.002774 | 1000.96 | 1000.21 | 999.173 | 1479 | 1494.7 | 1508.7 | 1520.8
x1 = 0.003111 | 1001.11 | 1000.35 | 999.291 | 1482.5 | 1497.9 | 1511.6 | 1523.5
x1 = 0.003716 | 1001.38 | 1000.58 | 999.491 | 1488.4 | 1503.2 | 1516.5 | 1527.9
x1 = 0.003899 | 1001.46 | 1000.64 | 999.54 | 1489.7 | 1504.7 | 1517.8 | 1529.1
x1 = 0.004079 | 1001.55 | 1000.72 | 999.608 | 1491.9 | 1506.4 | 1519.3 | 1530.5
x1 = 0.004181 | 1001.59 | 1000.75 | 999.636 | 1492.8 | 1507.3 | 1520.1 | 1531.2
x1 = 0.004462 | 1001.71 | 1000.85 | 999.721 | 1495.5 | 1509.7 | 1522.3 | 1533.1
x1 = 0.004601 | 1001.77 | 1000.9 | 999.764 | 1496.8 | 1510.9 | 1523.3 | 1534
x1 = 0.004981 | 1001.93 | 1001.04 | 999.873 | 1500.1 | 1513.8 | 1525.9 | 1536.3
x1 = 0.005198 | 1002.02 | 1001.12 | 999.935 | 1501.6 | 1515.3 | 1527.2 | 1537.5
x1 = 0.005607 | 1002.2 | 1001.27 | 1000.06 | 1505.4 | 1518.4 | 1529.9 | 1539.8
x1 = 0.005782 | 1002.27 | 1001.32 | 1000.1 | 1506.8 | 1519.6 | 1530.9 | 1540.7
